Experimental data reported in patent publication EP2209388B1, “SACRIFICIAL ANTIOXIDANT” (Borregaard AS, priority 2007, dated 2009).

Experiments:
[1] = Peroxynitrite test (total antioxidant effect), antioxidant screening; assay type: biochemical; details: comparison in words of the scores of table 3
Description: To assess and verify the effect of lignosulfonate as antioxidant several lignosulfonic samples have been tested in different antioxidant screenings. Table 3. Samples tested for antioxidant effect. Five types of lignosulfonates were investigated; sodium lignosulfonate, a desulfonated oxidized lignosulfonate, and three fractions of a sodium lignosulfonate; low, medium and high molecular weight. […] The desulfonated oxidized lignosulfonate had the best antioxidant effect compared to the sodium lignosulfonate samples. […] As a comparison the synthetic antioxidant Ethoxyquin, gave the highest score in the test.

[2] = Autoxidation of rosmarinic acid with oxygen at 65°C with/without lignosulfonate (Example 3), reversed-phase HPLC-UV 280 nm; assay type: physicochemical; design: unit not given here
Description: The combined effect of lignosulfonate was in addition shown in autoxidation experiments using two different lignosulfonates and rosmarinic acid as a representative for a different antioxidant. […] In parallel the same concentration of antioxidant, rosmarinic acid 1%, was supplemented with lignosulfonate. The tested lignins were a sodium lignosulfonate (LS 1) and a calcium lignosulfonate (LS 2), both added in the same amounts based on dry content (17%). Samples were withdrawn daily and the amount of remaining antioxidant was chromatographically quantified. Reversed-phase HPLC with UV-detection at 280 nm was the method of choice for monitoring the positive effect of LS.

Cc1cc(C(C)(C)C)c(O)c(C(C)(C)C)c1 [BHT, 2,6-di-tert-butyl-4-methylphenol]
antioxidant effect [1]: scored lowest

CCOc1ccc2c(c1)C(C)=CC(C)(C)N2 [Ethoxyquin, 1,2-dihydro-6-etoxy-2,2,4-trimetylquinoline]
antioxidant effect [1]: highest score

O=C(/C=C/c1ccc(O)c(O)c1)O[C@H](Cc1ccc(O)c(O)c1)C(=O)O [Rosmarinic acid]
Autoxidation of rosmarinic acid (amount of remaining antioxidant) ([2]; Day 0, rosmarinic acid 1%, lignosulfonate 17% dry content): 100
Autoxidation of rosmarinic acid (amount of remaining antioxidant) ([2]; Day 1): 72
Autoxidation of rosmarinic acid (amount of remaining antioxidant) ([2]; Day 2): 45
Autoxidation of rosmarinic acid (amount of remaining antioxidant) ([2]; Day 3): 11
Autoxidation of rosmarinic acid (amount of remaining antioxidant) ([2]; Day 4): 2
Autoxidation of rosmarinic acid (amount of remaining antioxidant) ([2]; Day 4, listed as rosmarinic acid): completely degraded
